What was measured:
Experiment in all cases: KINOMEscan competition binding
Details in all cases: compound 10.0 µM
EPHA5 (human) = EPHA5 (human) (UniProt P54756)
CDK2 (human) = CDK2 (human) (UniProt P24941)
BRAF (human) = BRAF (human) (UniProt P15056)
CDK4 CCND3 (human) = CDK4 CCND3 (human) (UniProt P11802+P30281)
RPS6KA5 KD1 (human) = RPS6KA5 KD1 (human) (UniProt O75582)
WNK1 (human) = WNK1 (human) (UniProt Q9H4A3)
PIK3C2B (human) = PIK3C2B (human) (UniProt O00750)
NEK9 (human) = NEK9 (human) (UniProt Q8TD19)
CAMKK1 (human) = CAMKK1 (human) (UniProt Q8N5S9)
MAPKAPK2 (human) = MAPKAPK2 (human) (UniProt P49137)
ICK (human) = ICK (human) (UniProt Q9UPZ9)
ICK (human), sequence (Q9UPZ9 whole entry, looked up): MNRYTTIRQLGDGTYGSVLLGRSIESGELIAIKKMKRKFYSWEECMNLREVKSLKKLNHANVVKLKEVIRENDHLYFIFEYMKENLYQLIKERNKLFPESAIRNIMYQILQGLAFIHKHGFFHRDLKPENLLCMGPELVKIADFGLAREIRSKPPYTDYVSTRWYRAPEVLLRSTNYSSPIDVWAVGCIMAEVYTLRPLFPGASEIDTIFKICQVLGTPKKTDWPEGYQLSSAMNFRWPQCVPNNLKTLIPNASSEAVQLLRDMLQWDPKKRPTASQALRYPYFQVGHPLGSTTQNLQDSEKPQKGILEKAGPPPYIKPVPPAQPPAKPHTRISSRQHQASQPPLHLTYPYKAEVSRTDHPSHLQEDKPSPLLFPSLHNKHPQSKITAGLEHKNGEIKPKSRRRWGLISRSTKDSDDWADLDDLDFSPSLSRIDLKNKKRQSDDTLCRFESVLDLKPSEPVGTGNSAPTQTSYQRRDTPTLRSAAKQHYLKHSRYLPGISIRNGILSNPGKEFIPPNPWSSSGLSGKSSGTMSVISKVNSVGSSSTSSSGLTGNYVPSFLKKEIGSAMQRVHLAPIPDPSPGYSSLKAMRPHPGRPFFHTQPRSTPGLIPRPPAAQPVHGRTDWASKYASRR

CaMK1 (human) = CaMK1 (human) (UniProt Q14012)
WNK3 (human) = WNK3 (human) (UniProt Q9BYP7)
FYN (human) = FYN (human) (UniProt P06241)
HUNK (human) = HUNK (human) (UniProt P57058)
FGFR3 (human) = FGFR3 (human) (UniProt P22607)
PIP5K1C (human) = PIP5K1C (human) (UniProt O60331)
BTK (human) = BTK (human) (UniProt Q06187)
NTRK1 (human) = NTRK1 (human) (UniProt P04629)
NEK11 (human) = NEK11 (human) (UniProt Q8NG66)
NEK1 (human) = NEK1 (human) (UniProt Q96PY6)
ERN1 (human) = ERN1 (human) (UniProt O75460)
ERN1 (human), sequence (O75460 whole entry, looked up): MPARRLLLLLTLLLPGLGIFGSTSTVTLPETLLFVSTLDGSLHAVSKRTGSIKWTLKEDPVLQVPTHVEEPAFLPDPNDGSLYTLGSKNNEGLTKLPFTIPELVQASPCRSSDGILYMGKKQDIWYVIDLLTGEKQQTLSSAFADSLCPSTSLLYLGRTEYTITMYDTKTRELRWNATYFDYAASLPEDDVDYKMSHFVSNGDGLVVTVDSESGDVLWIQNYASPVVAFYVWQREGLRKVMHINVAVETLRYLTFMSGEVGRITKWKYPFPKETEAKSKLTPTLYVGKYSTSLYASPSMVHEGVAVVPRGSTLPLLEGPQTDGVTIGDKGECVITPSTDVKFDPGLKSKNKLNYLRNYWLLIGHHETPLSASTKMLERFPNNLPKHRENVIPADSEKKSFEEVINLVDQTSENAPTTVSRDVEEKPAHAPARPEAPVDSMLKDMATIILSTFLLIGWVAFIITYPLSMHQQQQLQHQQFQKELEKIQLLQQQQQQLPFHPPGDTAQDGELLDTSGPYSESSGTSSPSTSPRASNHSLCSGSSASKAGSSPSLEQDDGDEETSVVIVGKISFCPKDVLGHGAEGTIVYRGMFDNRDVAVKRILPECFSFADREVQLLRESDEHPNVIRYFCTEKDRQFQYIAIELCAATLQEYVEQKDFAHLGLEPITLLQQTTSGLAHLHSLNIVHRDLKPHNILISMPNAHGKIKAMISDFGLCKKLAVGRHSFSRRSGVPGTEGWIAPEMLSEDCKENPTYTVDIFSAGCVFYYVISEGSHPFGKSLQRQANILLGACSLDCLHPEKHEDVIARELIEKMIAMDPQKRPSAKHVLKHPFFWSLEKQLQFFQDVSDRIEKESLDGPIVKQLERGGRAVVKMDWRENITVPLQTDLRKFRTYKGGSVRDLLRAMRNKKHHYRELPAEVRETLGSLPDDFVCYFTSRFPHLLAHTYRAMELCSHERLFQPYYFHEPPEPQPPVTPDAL

CSNK1G3 (human) = CSNK1G3 (human) (UniProt Q9Y6M4)
NUAK2 (human) = NUAK2 (human) (UniProt Q9H093)
AURKB (human) = AURKB (human) (UniProt Q96GD4)
AURKB (human), sequence (Q96GD4 whole entry, looked up): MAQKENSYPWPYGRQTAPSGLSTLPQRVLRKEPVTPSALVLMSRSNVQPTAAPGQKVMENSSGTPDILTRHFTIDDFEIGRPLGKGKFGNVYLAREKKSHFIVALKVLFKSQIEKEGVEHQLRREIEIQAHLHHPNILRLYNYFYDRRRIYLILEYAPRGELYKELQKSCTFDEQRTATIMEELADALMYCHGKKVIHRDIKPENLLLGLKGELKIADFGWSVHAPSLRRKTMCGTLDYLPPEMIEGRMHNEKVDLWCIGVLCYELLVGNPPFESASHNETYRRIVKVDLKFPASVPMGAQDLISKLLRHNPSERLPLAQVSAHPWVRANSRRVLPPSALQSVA

PRKACB (human) = PRKACB (human) (UniProt P22694)
NEK2 (human) = NEK2 (human) (UniProt P51955)
CSNK1A1 (human) = CSNK1A1 (human) (UniProt P48729)
PAK7 (human) = PAK7 (human) (UniProt Q9P286)
VRK2 (human) = VRK2 (human) (UniProt Q86Y07)
LCK (human) = LCK (human) (UniProt P06239)
LCK (human), sequence (P06239 whole entry, looked up): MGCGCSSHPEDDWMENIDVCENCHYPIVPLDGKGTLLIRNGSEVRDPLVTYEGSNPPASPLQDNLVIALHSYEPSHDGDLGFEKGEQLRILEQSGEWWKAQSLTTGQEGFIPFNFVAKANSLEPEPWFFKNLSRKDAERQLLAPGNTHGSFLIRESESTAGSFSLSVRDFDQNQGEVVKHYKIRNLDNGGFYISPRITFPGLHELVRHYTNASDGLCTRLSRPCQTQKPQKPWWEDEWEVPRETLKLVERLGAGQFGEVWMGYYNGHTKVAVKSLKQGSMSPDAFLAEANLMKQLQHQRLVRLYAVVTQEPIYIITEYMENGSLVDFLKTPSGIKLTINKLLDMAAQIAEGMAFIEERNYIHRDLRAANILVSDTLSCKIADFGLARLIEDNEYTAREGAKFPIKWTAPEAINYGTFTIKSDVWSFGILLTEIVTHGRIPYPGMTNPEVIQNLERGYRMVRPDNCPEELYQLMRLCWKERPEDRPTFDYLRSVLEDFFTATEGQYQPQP

EIF2AK2 (human) = EIF2AK2 (human) (UniProt P19525)
MAPK11 (human) = MAPK11 (human) (UniProt Q15759)
BMPR2 (human) = BMPR2 (human) (UniProt Q13873)
IKBKB (human) = IKBKB (human) (UniProt O14920)
TNK2 (human) = TNK2 (human) (UniProt Q07912)
EGFR (human) = EGFR (human) (UniProt P00533)
EGFR (human), sequence (P00533 whole entry, looked up): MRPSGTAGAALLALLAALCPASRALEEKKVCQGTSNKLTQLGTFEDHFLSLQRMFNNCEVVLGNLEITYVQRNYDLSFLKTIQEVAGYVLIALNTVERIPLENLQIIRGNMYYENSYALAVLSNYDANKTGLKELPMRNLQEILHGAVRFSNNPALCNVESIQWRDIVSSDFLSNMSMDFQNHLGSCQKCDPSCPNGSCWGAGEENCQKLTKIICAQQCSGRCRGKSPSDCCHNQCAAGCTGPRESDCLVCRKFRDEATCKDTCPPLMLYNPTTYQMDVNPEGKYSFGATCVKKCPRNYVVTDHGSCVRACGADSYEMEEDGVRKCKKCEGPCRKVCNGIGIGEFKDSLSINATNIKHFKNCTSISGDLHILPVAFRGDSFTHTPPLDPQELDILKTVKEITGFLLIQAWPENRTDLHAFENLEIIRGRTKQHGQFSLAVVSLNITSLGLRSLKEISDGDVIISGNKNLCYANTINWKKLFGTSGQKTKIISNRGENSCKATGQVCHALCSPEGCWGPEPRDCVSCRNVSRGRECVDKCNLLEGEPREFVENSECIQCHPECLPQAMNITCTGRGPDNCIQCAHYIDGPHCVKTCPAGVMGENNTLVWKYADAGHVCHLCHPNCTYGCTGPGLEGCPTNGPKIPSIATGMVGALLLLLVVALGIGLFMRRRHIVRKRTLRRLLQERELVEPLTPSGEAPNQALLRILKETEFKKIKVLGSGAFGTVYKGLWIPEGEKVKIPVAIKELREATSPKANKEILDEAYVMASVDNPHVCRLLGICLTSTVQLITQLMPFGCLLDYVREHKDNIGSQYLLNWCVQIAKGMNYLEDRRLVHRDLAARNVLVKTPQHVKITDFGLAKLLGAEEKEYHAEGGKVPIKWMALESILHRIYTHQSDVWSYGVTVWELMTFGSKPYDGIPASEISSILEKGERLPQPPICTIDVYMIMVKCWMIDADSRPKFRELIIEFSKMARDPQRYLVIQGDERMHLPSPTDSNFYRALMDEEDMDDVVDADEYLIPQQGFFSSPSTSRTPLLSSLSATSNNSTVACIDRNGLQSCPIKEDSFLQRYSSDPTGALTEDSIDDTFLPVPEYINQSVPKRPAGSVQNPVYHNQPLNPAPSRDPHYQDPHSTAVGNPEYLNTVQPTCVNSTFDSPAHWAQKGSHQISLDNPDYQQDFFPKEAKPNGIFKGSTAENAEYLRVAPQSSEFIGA

RPS6KA5 KD2 (human) = RPS6KA5 KD2 (human) (UniProt O75582)
MAPK8 (human) = MAPK8 (human) (UniProt P45983)
MAPK8 (human), sequence (P45983 whole entry, looked up): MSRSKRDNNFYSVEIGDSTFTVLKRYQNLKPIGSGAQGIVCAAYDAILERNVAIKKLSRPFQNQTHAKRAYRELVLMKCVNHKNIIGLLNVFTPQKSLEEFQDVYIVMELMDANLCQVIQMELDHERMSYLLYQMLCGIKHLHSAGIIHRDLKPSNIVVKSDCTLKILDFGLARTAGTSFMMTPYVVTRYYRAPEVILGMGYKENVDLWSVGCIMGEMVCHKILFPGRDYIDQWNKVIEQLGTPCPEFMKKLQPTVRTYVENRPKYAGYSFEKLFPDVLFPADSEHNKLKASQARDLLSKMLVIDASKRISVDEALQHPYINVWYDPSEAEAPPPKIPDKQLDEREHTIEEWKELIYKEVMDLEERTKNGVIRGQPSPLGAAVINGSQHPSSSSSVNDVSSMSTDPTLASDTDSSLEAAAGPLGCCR

ABL1 (human) = ABL1 (human) (UniProt P00519)

BRAF (human), sequence (P15056 whole entry, looked up): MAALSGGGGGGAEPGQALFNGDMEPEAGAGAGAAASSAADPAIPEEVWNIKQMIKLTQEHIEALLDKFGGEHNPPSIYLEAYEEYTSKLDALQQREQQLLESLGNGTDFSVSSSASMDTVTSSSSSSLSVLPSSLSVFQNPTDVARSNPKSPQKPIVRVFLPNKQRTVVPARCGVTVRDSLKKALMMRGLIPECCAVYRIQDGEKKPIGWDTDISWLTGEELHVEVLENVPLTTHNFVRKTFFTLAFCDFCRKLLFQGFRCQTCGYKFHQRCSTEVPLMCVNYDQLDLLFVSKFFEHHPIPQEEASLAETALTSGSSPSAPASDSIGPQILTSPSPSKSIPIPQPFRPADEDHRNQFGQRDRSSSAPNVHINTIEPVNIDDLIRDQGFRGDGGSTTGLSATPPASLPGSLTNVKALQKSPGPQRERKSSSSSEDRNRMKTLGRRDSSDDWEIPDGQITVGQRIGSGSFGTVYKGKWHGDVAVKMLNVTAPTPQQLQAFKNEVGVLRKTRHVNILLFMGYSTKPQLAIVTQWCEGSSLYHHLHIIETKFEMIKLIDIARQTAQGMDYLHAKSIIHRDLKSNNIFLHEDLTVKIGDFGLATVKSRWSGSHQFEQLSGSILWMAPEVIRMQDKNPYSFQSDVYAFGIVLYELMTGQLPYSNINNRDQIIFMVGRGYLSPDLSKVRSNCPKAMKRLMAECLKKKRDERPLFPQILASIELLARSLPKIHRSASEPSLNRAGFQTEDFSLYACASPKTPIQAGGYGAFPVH

In the case of `COc1cc2ncnc(Nc3cccc(Cl)c3)c2cc1OC`, the kinase still bound, per cent of control (EPHA5 (human)) was 55%, the kinase still bound, per cent of control (CDK2 (human)) was 100% and the kinase still bound, per cent of control (BRAF (human)) was 64%. It also gave a kinase still bound, per cent of control (CDK4 CCND3 (human)) of 93%, a kinase still bound, per cent of control (RPS6KA5 KD1 (human)) of 100% and a kinase still bound, per cent of control (WNK1 (human)) of 71%. For the same compound, the kinase still bound, per cent of control (PIK3C2B (human)) was 7.6%, the kinase still bound, per cent of control (NEK9 (human)) was 78% and the kinase still bound, per cent of control (CAMKK1 (human)) was 74%. For the same compound, the kinase still bound, per cent of control (MAPKAPK2 (human)) was 100%, the kinase still bound, per cent of control (ICK (human)) was 100% and the kinase still bound, per cent of control (CaMK1 (human)) was 81%. It also gave a kinase still bound, per cent of control (WNK3 (human)) of 78%, a kinase still bound, per cent of control (FYN (human)) of 81% and a kinase still bound, per cent of control (HUNK (human)) of 69%. The kinase still bound, per cent of control (FGFR3 (human)) was 99%, the kinase still bound, per cent of control (PIP5K1C (human)) was 14% and the kinase still bound, per cent of control (BTK (human)) was 70%. For the same compound, the kinase still bound, per cent of control (NTRK1 (human)) was 88%, the kinase still bound, per cent of control (NEK11 (human)) was 99% and the kinase still bound, per cent of control (NEK1 (human)) was 77%. The kinase still bound, per cent of control (ERN1 (human)) was 41%, the kinase still bound, per cent of control (CSNK1G3 (human)) was 100% and the kinase still bound, per cent of control (NUAK2 (human)) was 49%. The kinase still bound, per cent of control (AURKB (human)) was 40%, the kinase still bound, per cent of control (PRKACB (human)) was 100% and the kinase still bound, per cent of control (NEK2 (human)) was 92%. The kinase still bound, per cent of control (CSNK1A1 (human)) was 35%, the kinase still bound, per cent of control (PAK7 (human)) was 90% and the kinase still bound, per cent of control (VRK2 (human)) was 35%. For the same compound, the kinase still bound, per cent of control (LCK (human)) was 5.4%, the kinase still bound, per cent of control (EIF2AK2 (human)) was 52% and the kinase still bound, per cent of control (MAPK11 (human)) was 57%. For the same compound, the kinase still bound, per cent of control (BMPR2 (human)) was 100%, the kinase still bound, per cent of control (IKBKB (human)) was 66% and the kinase still bound, per cent of control (TNK2 (human)) was 61%. It also gave a kinase still bound, per cent of control (EGFR (human)) of 0.05%, a kinase still bound, per cent of control (RPS6KA5 KD2 (human)) of 67% and a kinase still bound, per cent of control (MAPK8 (human)) of 38%.
`CNC(=O)Nc1ccc(-c2nc(N3CC4CCC(C3)O4)c3cnn(C4CCC5(CC4)OCCO5)c3n2)cc1` was tested, and the kinase still bound, per cent of control (EPHA5 (human)) was 92%, the kinase still bound, per cent of control (CDK2 (human)) was 92% and the kinase still bound, per cent of control (BRAF (human)) was 100%. For the same compound, the kinase still bound, per cent of control (CDK4 CCND3 (human)) was 92%, the kinase still bound, per cent of control (RPS6KA5 KD1 (human)) was 86% and the kinase still bound, per cent of control (WNK1 (human)) was 95%. It also gave a kinase still bound, per cent of control (PIK3C2B (human)) of 25%, a kinase still bound, per cent of control (NEK9 (human)) of 100% and a kinase still bound, per cent of control (CAMKK1 (human)) of 100%. The kinase still bound, per cent of control (MAPKAPK2 (human)) was 82%, the kinase still bound, per cent of control (ICK (human)) was 87% and the kinase still bound, per cent of control (CaMK1 (human)) was 93%. It also gave a kinase still bound, per cent of control (WNK3 (human)) of 100%, a kinase still bound, per cent of control (FYN (human)) of 70% and a kinase still bound, per cent of control (HUNK (human)) of 100%. It also gave a kinase still bound, per cent of control (FGFR3 (human)) of 83%, a kinase still bound, per cent of control (PIP5K1C (human)) of 100% and a kinase still bound, per cent of control (BTK (human)) of 90%. The kinase still bound, per cent of control (NTRK1 (human)) was 100%, the kinase still bound, per cent of control (NEK11 (human)) was 99% and the kinase still bound, per cent of control (NEK1 (human)) was 100%. For the same compound, the kinase still bound, per cent of control (ERN1 (human)) was 93%, the kinase still bound, per cent of control (CSNK1G3 (human)) was 48% and the kinase still bound, per cent of control (NUAK2 (human)) was 100%. For the same compound, the kinase still bound, per cent of control (AURKB (human)) was 92%, the kinase still bound, per cent of control (PRKACB (human)) was 87% and the kinase still bound, per cent of control (NEK2 (human)) was 72%. For the same compound, the kinase still bound, per cent of control (CSNK1A1 (human)) was 100%, the kinase still bound, per cent of control (PAK7 (human)) was 100% and the kinase still bound, per cent of control (VRK2 (human)) was 100%. It also gave a kinase still bound, per cent of control (LCK (human)) of 100%, a kinase still bound, per cent of control (EIF2AK2 (human)) of 100% and a kinase still bound, per cent of control (MAPK11 (human)) of 100%. The kinase still bound, per cent of control (BMPR2 (human)) was 83%, the kinase still bound, per cent of control (IKBKB (human)) was 79% and the kinase still bound, per cent of control (TNK2 (human)) was 84%. The kinase still bound, per cent of control (EGFR (human)) was 62%, the kinase still bound, per cent of control (RPS6KA5 KD2 (human)) was 90% and the kinase still bound, per cent of control (MAPK8 (human)) was 91%.
With `Cc1cn(-c2cc(C(=O)Nc3ccc(C)c(NC(=O)c4ccno4)c3)cc(C(F)(F)F)c2)cn1` the kinase still bound, per cent of control (EPHA5 (human)) was 17%, the kinase still bound, per cent of control (CDK2 (human)) was 100% and the kinase still bound, per cent of control (RPS6KA5 KD1 (human)) was 100%. For the same compound, the kinase still bound, per cent of control (PIK3C2B (human)) was 100%, the kinase still bound, per cent of control (NEK9 (human)) was 100% and the kinase still bound, per cent of control (CAMKK1 (human)) was 100%. It also gave a kinase still bound, per cent of control (MAPKAPK2 (human)) of 100%, a kinase still bound, per cent of control (ICK (human)) of 100% and a kinase still bound, per cent of control (CaMK1 (human)) of 100%. For the same compound, the kinase still bound, per cent of control (FYN (human)) was 9.6%, the kinase still bound, per cent of control (HUNK (human)) was 100% and the kinase still bound, per cent of control (FGFR3 (human)) was 100%. The kinase still bound, per cent of control (BTK (human)) was 100%, the kinase still bound, per cent of control (NTRK1 (human)) was 100% and the kinase still bound, per cent of control (NEK1 (human)) was 100%. It also gave a kinase still bound, per cent of control (ERN1 (human)) of 100%, a kinase still bound, per cent of control (CSNK1G3 (human)) of 100% and a kinase still bound, per cent of control (NUAK2 (human)) of 100%. It also gave a kinase still bound, per cent of control (AURKB (human)) of 100%, a kinase still bound, per cent of control (PRKACB (human)) of 100% and a kinase still bound, per cent of control (NEK2 (human)) of 100%. It also gave a kinase still bound, per cent of control (PAK7 (human)) of 100%, a kinase still bound, per cent of control (LCK (human)) of 4% and a kinase still bound, per cent of control (EIF2AK2 (human)) of 100%. For the same compound, the kinase still bound, per cent of control (MAPK11 (human)) was 0%, the kinase still bound, per cent of control (BMPR2 (human)) was 100% and the kinase still bound, per cent of control (IKBKB (human)) was 100%. The kinase still bound, per cent of control (TNK2 (human)) was 100%, the kinase still bound, per cent of control (ABL1 (human)) was 8% and the kinase still bound, per cent of control (EGFR (human)) was 100%. It also gave a kinase still bound, per cent of control (RPS6KA5 KD2 (human)) of 100% and a kinase still bound, per cent of control (MAPK8 (human)) of 100%.
Compound `CCOc1cc(N2CCC(O)CC2)ccc1Nc1ncc2c(n1)N(C)c1ccccc1C(=O)N2C` has a kinase still bound, per cent of control (EPHA5 (human)) of 100%, a kinase still bound, per cent of control (CDK2 (human)) of 100% and a kinase still bound, per cent of control (BRAF (human)) of 100%. It also gave a kinase still bound, per cent of control (RPS6KA5 KD1 (human)) of 100%, a kinase still bound, per cent of control (PIK3C2B (human)) of 100% and a kinase still bound, per cent of control (NEK9 (human)) of 100%. For the same compound, the kinase still bound, per cent of control (CAMKK1 (human)) was 100%, the kinase still bound, per cent of control (MAPKAPK2 (human)) was 100% and the kinase still bound, per cent of control (ICK (human)) was 100%. It also gave a kinase still bound, per cent of control (CaMK1 (human)) of 100%, a kinase still bound, per cent of control (FYN (human)) of 100% and a kinase still bound, per cent of control (HUNK (human)) of 100%. The kinase still bound, per cent of control (FGFR3 (human)) was 100%, the kinase still bound, per cent of control (BTK (human)) was 100% and the kinase still bound, per cent of control (NTRK1 (human)) was 100%. It also gave a kinase still bound, per cent of control (NEK1 (human)) of 100%, a kinase still bound, per cent of control (ERN1 (human)) of 100% and a kinase still bound, per cent of control (CSNK1G3 (human)) of 100%. The kinase still bound, per cent of control (NUAK2 (human)) was 100%, the kinase still bound, per cent of control (AURKB (human)) was 100% and the kinase still bound, per cent of control (PRKACB (human)) was 100%. The kinase still bound, per cent of control (NEK2 (human)) was 100%, the kinase still bound, per cent of control (PAK7 (human)) was 100% and the kinase still bound, per cent of control (LCK (human)) was 100%. For the same compound, the kinase still bound, per cent of control (EIF2AK2 (human)) was 100%, the kinase still bound, per cent of control (MAPK11 (human)) was 100% and the kinase still bound, per cent of control (BMPR2 (human)) was 100%. It also gave a kinase still bound, per cent of control (IKBKB (human)) of 100%, a kinase still bound, per cent of control (TNK2 (human)) of 17% and a kinase still bound, per cent of control (ABL1 (human)) of 100%. It also gave a kinase still bound, per cent of control (EGFR (human)) of 100%, a kinase still bound, per cent of control (RPS6KA5 KD2 (human)) of 100% and a kinase still bound, per cent of control (MAPK8 (human)) of 100%.
